Test results: patent US11512053B2, “Arginine methyltransferase inhibitors and uses thereof” (priority 2013, dated 2022)
Where two headings read alike, the source gives them in different places.

Target: T1, full-length human PRMT3 isoform 1 (GST-tagged) (Homo sapiens, UniProt O60678)
T1 construct: GST-tagged PRMT3; made in house; host or cells: E. coli BL21(DE3) Gold
Test: PRMT3 Biochemical Assay (3H-SAM Flashplate, peptide substrate)
Text: General Materials. S-adenosylmethionine (SAM), S-adenosylhomocysteine (SAH), bicine, Tween20, dimethylsulfoxide (DMSO), bovine skin gelatin (BSG),), isopropyl-β-D-thiogalactopyranoside (IPTG), and Tris(2-carboxyethyl)phosphine hydrochloride solution (TCEP) were purchased from Sigma-Aldrich at the highest level of purity possible. ^3H-SAM was purchase from American Radiolabeled Chemicals with a specific activity of 80 Ci/mmol. 384-well streptavidin Flashplates were purchased from PerkinElmer.
Substrates. Peptide containing the classic RMT substrate motif was synthesized with an N-terminal linker-affinity tag motif and a C-terminal amide cap by 21st Century Biochemicals. The peptide was purified by high-performance liquid chromatography (HPLC) to greater than 95% purity and confirmed by liquid chromatography mass spectrometry (LC-MS). The sequence was Biot-Ahx-[…]-amide (SEQ ID NO.:11).
Molecular Biology: Full-length human PRMT3 (NM_005788.3) isoform 1 transcript clone was amplified from an HEK 293 cDNA library and subcloned into pGEX-KG (GE Life Sciences). The resulting construct encodes an N-terminal GST tag and a thrombin cleavage sequence ([…] […] […] […] S) (SEQ ID NO.:12) fused directly to Cys 2 of PRMT3.
Protein Expression. E. coli (BL21(DE3) Gold, Stratagene) made competent by the CaCl2) method were transformed with the PRMT3 construct and ampicillin selection. Protein over-expression was accomplished by growing the PRMT3 expressing E. coli clone and inducing expression with 0.3 mM IPTG at 16° C. The culture was grown for 12 hours, harvested by centrifugation, and stored at −80° C. for purification.
Protein Purification. […] GST-tagged PRMT3 was eluted with 50 mM Tris, 2 mM glutathione, pH 7.1 and 50 mM Tris, 20 mM glutathione, pH 7.1. Pooled fractions were dialysed in 20 mM Tris, 50 mM NaCl, 5% glycerol, 1 mM EDTA, 1 mM DTT, pH7.5 (Buffer B) and applied to a Q Sepharose Fast Flow column. GST-tagged PRMT3 was eluted by 500 mM NaCl in buffer B. Pooled fractions were dialyzed in 25 mM phosphate buffer, 100 mM NaCl, 5% glycerol, 2 mM DTT, pH 6.8 (Buffer C) and loaded on to a ceramic hydroxyapatite column. GST-tagged PRMT3 eluted with 25-400 mM phosphate in buffer C. Protein was concentrated and buffer was exchanged to 20 mM Tris, 150 mM NaCl, 5% glycerol, 5 mM β-mercaptoethanol, pH7.8 by ultrafiltration. The purity of recovered protein was 70%.
General Procedure for PRMT3 Enzyme Assays on Peptide Substrates. The assays were all performed in a buffer consisting of 20 mM Bicine (pH=7.6), 1 mM TCEP, 0.005% BSG, and 0.002% Tween 20, prepared on the day of use. Compounds in 100% DMSO (1 ul) were spotted into a polypropylene 384-well V-bottom plates (Greiner) using a Platemate Plus outfitted with a 384-channel head (Thermo Scientific). DMSO (1 ul) was added to Columns 11, 12, 23, 24, rows A-H for the maximum signal control and 1 ul of SAH, a known product and inhibitor of PRMT3, was added to columns 11, 12, 23, 24, rows I-P for the minimum signal control. A cocktail (40 ul) containing the PRMT3 enzyme was added by Multidrop Combi (Thermo-Fisher). The compounds were allowed to incubate with PRMT3 for 30 min at room temperature, then a cocktail (10 ul) containing SAM and peptide was added to initiate the reaction (final volume=51 ul). The final concentrations of the components were as follows: PRMT3 was 0.5 nM, ^3H-SAM was 100 nM, non-radiolabeled SAM was 1.8 uM, peptide was 330 nM, SAH in the minimum signal control wells was 1 mM, and the DMSO concentration was 2%. The assays were stopped by the addition of potassium chloride (10 ul) to a final concentration of 100 mM. 50 ul of the reaction in the 384-well polypropylene plate was then transferred to a 384-well Flashplate and the biotinylated peptides were allowed to bind to the streptavidin surface for at least 1 hour before being washed once with 0.1% Tween20 in a Biotek ELx405 plate washer. […]

[1] = single experiment or average of multiple experiments

T1 sequence (O60678 with tags, fused parts or gaps): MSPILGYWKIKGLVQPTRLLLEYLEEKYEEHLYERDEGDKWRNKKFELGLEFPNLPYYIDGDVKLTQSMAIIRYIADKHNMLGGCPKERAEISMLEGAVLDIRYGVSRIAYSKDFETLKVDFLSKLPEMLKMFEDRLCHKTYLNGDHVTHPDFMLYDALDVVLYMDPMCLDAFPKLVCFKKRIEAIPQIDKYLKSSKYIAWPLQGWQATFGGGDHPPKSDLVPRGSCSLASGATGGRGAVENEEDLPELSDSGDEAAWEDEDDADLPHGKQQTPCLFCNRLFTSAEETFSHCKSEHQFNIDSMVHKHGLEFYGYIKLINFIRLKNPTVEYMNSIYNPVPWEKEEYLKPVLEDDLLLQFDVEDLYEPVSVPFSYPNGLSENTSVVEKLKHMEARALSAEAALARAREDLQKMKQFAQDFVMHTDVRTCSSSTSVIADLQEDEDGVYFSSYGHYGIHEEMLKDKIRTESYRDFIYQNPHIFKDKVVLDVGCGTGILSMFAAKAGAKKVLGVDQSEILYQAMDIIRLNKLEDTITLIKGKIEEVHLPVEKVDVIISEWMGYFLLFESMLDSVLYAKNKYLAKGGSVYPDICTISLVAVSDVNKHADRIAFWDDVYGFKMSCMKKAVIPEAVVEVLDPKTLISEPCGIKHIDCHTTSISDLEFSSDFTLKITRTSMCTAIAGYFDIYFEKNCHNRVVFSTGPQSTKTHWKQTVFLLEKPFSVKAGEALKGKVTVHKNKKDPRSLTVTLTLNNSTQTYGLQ

SMILES | IC50 [1] | IC50
COc1cccc(/C=C/c2n[nH]cc2CN(C)CCN)c1 [Compound 17] | 2.36 µM | –
CNCCN(C)Cc1c[nH]nc1C#Cc1ccc(C(C)(C)C)cc1 [Compound 2] | 3 µM | –
CN(CCN)Cc1c[nH]nc1/C=C/c1cc(C(F)(F)F)cc(C(F)(F)F)c1 [Compound 14] | 6.77 µM | –
Cc1ccc(/C=C/c2n[nH]cc2CN(C)CCN)cc1 [Compound 8] | 5.81 µM | –
CN(CCN)Cc1c[nH]nc1/C=C/c1ccc(F)cc1F [Compound 13] | 3.62 µM | –
CN(CCN)Cc1c[nH]nc1C1CCCCC1 [Compound 22] | 6.46 µM | –
COC/C=C/c1n[nH]cc1CN(C)CCN [Compound 19] | 7.74 µM | –
CN(CCN)Cc1c[nH]nc1/C=C/c1cccc(F)c1 [Compound 20] | 2.34 µM | –
CNCCN(C)Cc1c[nH]nc1/C=C/c1ccc(C(F)(F)F)cc1 [Compound 6] | 3.94 µM | –
CNCCN(C)Cc1c[nH]nc1C#Cc1cccc(OC)c1 [Compound 1] | 6.83 µM | –
CN(CCN)Cc1c[nH]nc1/C=C/c1ccc(C(F)(F)F)cc1 [Compound 18] | 1.75 µM | –
CN(CCN)Cc1c[nH]nc1/C=C/c1cc(F)cc(F)c1 [Compound 15] | 2.34 µM | –
CN(CCN)Cc1c[nH]nc1/C=C/Cc1ccccc1 [Compound 24] | > 10 µM | > 10 µM
CC(C)c1n[nH]cc1CN(C)CCN [Compound 21] | > 10 µM | > 10 µM
CN(CCN)Cc1c[nH]nc1C1=CCOCC1 [Compound 10] | > 10 µM | > 10 µM
CN(CCN)Cc1c[nH]nc1C1CC1 [Compound 12] | > 10 µM | > 10 µM
CN(CCN)Cc1c[nH]nc1CCc1ccc(F)cc1 [Compound 23, N^1-((3-(4-fluorophenethyl)-1H-pyrazol-4-yl)methyl)-N^1-methylethane-1,2-diamine] | 9.65 µM | –
CN(CCN)Cc1c[nH]nc1/C=C/c1cccc(C(F)(F)F)c1 [Compound 16] | 5.79 µM | –
COc1cc(/C=C/c2n[nH]cc2CN(C)CCN)cc(OC)c1 [Compound 11] | 1.58 µM | –
CNCCN(C)Cc1c[nH]nc1/C=C/c1ccc(OC)cc1 [Compound 7] | 5.91 µM | –
CNCCN(C)Cc1c[nH]nc1C#Cc1ccc(F)cc1 [Compound 4] | > 10 µM | > 10 µM
CNCCN(C)Cc1c[nH]nc1/C=C/c1ccc(-c2ccccc2)cc1 [Compound 5] | 1.45 µM | –
